According to BindingDB's records for PubMed 37122539 (Virginia Tech, 2023):
In brackets after ≈: the same amount, converted by molar mass.

system: Enterococcus faecalis; test: Antibacterial activity against Enterococcus faecalis ATCC 29212 incubated for 16 hrs by broth microdilution method

| IC50 [µg/mL] | SMILES |
| --- | --- |
| 15 (≈ 29.3 µM) | CN(CC[C@H](N)CC(=O)N[C@H]1C=C[C@H](n2ccc(N)nc2=O)O[C@@H]1C(=O)OCc1ccccc1)C(=N)N |
| 12 (≈ 24.6 µM) | C#CCCCOC(=O)[C@H]1O[C@@H](n2ccc(N)nc2=O)C=C[C@@H]1NC(=O)C[C@@H](N)CCN(C)C(=N)N |
| 11 (≈ 21.7 µM) | CCCCCCOC(=O)[C@H]1O[C@@H](n2ccc(N)nc2=O)C=C[C@@H]1NC(=O)C[C@@H](N)CCN(C)C(=N)N |
| 13 (≈ 30.8 µM) | CN(CC[C@H](N)CC(=O)N[C@H]1C=C[C@H](n2ccc(N)nc2=O)O[C@@H]1C(N)=O)C(=N)N |
| 6.9 (≈ 13.1 µM) | CN(CC[C@H](N)CC(=O)N[C@H]1C=C[C@H](n2ccc(N)nc2=O)O[C@@H]1C(=O)OCCc1ccccc1)C(=N)N |
| 9.2 (≈ 21.1 µM) | COC(=O)[C@H]1O[C@@H](n2ccc(N)nc2=O)C=C[C@@H]1NC(=O)C[C@@H](N)CCN(C)C(=N)N |
| 11 (≈ 23.7 µM) | CCCOC(=O)[C@H]1O[C@@H](n2ccc(N)nc2=O)C=C[C@@H]1NC(=O)C[C@@H](N)CCN(C)C(=N)N |
| 16 (≈ 33.4 µM) | CCCCOC(=O)[C@H]1O[C@@H](n2ccc(N)nc2=O)C=C[C@@H]1NC(=O)C[C@@H](N)CCN(C)C(=N)N |
| 9.9 (≈ 22 µM) | CCOC(=O)[C@H]1O[C@@H](n2ccc(N)nc2=O)C=C[C@@H]1NC(=O)C[C@@H](N)CCN(C)C(=N)N |

| SMILES | IC50 [µg/mL] |
| --- | --- |
| CN(CC[C@H](N)CC(=O)N[C@H]1C=C[C@H](n2ccc(N)nc2=O)O[C@@H]1C(=O)O)C(=N)N | 53 (≈ 125 µM) |
